From PubChem BioAssay (NCI)
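Interpolation was linear, between the two tested concentrations surrounding the appropriate level; five concentrations were tested over 48 hours in 96-well plates. TGI marks complete inhibition of growth.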

Columns and labels:
Assay in all cases: NCI tumour cell line growth inhibition, 48 h
SF-539 CNS = system: SF-539 CNS
DU-145 prostate = system: DU-145 prostate
TK-10 renal = system: TK-10 renal
MOLT-4 leukemia = system: MOLT-4 leukemia
LOX IMVI melanoma = system: LOX IMVI melanoma
MDA-MB-435 = system: MDA-MB-435
HCT-15 colon = system: HCT-15 colon
OVCAR-5 ovarian = system: OVCAR-5 ovarian
MALME-3M melanoma = system: MALME-3M melanoma
A549 NSCLC = system: A549 NSCLC
CAKI-1 renal = system: CAKI-1 renal
SNB-75 CNS = system: SNB-75 CNS
OVCAR-3 ovarian = system: OVCAR-3 ovarian
COLO 205 colon = system: COLO 205 colon
HS 578T breast = system: HS 578T breast
OVCAR-4 ovarian = system: OVCAR-4 ovarian
786-0 renal = system: 786-0 renal
PC-3 prostate = system: PC-3 prostate
NCI-H23 lung = system: NCI-H23 lung
SF-268 CNS = system: SF-268 CNS
NCI/ADR-RES ovarian = system: NCI/ADR-RES ovarian
MDA-MB-231 breast = system: MDA-MB-231 breast
SF-295 CNS = system: SF-295 CNS
UACC-257 melanoma = system: UACC-257 melanoma
RXF 393 renal = system: RXF 393 renal
HOP-62 NSCLC = system: HOP-62 NSCLC
HT29 colon = system: HT29 colon
SR leukemia = system: SR leukemia
RPMI-8226 leukemia = system: RPMI-8226 leukemia
SNB-19 CNS = system: SNB-19 CNS
SK-OV-3 ovarian = system: SK-OV-3 ovarian
SW-620 colon = system: SW-620 colon
K-562 leukemia = system: K-562 leukemia
UACC-62 melanoma = system: UACC-62 melanoma
NCI-H522 lung = system: NCI-H522 lung
SK-MEL-2 melanoma = system: SK-MEL-2 melanoma
HL-60(TB) leukemia = system: HL-60(TB) leukemia
MDA-N = system: MDA-N
MCF7 breast = system: MCF7 breast
HOP-92 NSCLC = system: HOP-92 NSCLC
BT-549 breast = system: BT-549 breast
HCT-116 colon = system: HCT-116 colon
UO-31 renal = system: UO-31 renal
SK-MEL-5 melanoma = system: SK-MEL-5 melanoma
HCC-2998 colon = system: HCC-2998 colon
OVCAR-8 ovarian = system: OVCAR-8 ovarian
M14 melanoma = system: M14 melanoma
EKVX NSCLC = system: EKVX NSCLC
CCRF-CEM leukemia = system: CCRF-CEM leukemia
IGROV1 ovarian = system: IGROV1 ovarian
U251 CNS = system: U251 CNS
KM12 colon = system: KM12 colon
T-47D breast = system: T-47D breast
ACHN renal = system: ACHN renal
SK-MEL-28 melanoma = system: SK-MEL-28 melanoma
SN12C renal = system: SN12C renal
NCI-H226 lung = system: NCI-H226 lung
NCI-H460 lung = system: NCI-H460 lung

With `CC12CCC(C(=O)n3c1nc1ccccc13)C(C)(C)O2` (configuration not stated) the TGI (SF-539 CNS) was over 100 µM, the TGI (DU-145 prostate) was over 100 µM and the TGI (TK-10 renal) was over 100 µM. For the same molecule, the TGI (MOLT-4 leukemia) was over 100 µM, the TGI (LOX IMVI melanoma) was over 100 µM and the TGI (MDA-MB-435) was over 100 µM. The TGI (HCT-15 colon) was over 100 µM, the TGI (OVCAR-5 ovarian) was over 100 µM and the TGI (MALME-3M melanoma) was over 100 µM. For the same molecule, the TGI (A549 NSCLC) was over 100 µM, the TGI (CAKI-1 renal) was over 100 µM and the TGI (SNB-75 CNS) was over 100 µM. It also gave a TGI (OVCAR-3 ovarian) of over 100 µM, a TGI (COLO 205 colon) of over 100 µM and a TGI (HS 578T breast) of over 100 µM. It also gave a TGI (OVCAR-4 ovarian) of over 100 µM, a TGI (786-0 renal) of over 100 µM and a TGI (PC-3 prostate) of over 100 µM. For the same molecule, the TGI (NCI-H23 lung) was over 100 µM, the TGI (SF-268 CNS) was over 100 µM and the TGI (NCI/ADR-RES ovarian) was over 100 µM. It also gave a TGI (MDA-MB-231 breast) of over 100 µM, a TGI (SF-295 CNS) of over 100 µM and a TGI (UACC-257 melanoma) of over 100 µM. For the same molecule, the TGI (RXF 393 renal) was over 100 µM, the TGI (HOP-62 NSCLC) was over 100 µM and the TGI (HT29 colon) was over 100 µM. It also gave a TGI (SR leukemia) of over 100 µM, a TGI (RPMI-8226 leukemia) of over 100 µM and a TGI (SNB-19 CNS) of over 100 µM. It also gave a TGI (SK-OV-3 ovarian) of over 100 µM, a TGI (SW-620 colon) of over 100 µM and a TGI (K-562 leukemia) of over 100 µM. For the same molecule, the TGI (UACC-62 melanoma) was over 100 µM, the TGI (NCI-H522 lung) was over 100 µM and the TGI (SK-MEL-2 melanoma) was over 100 µM. The TGI (HL-60(TB) leukemia) was over 100 µM, the TGI (MDA-N) was over 100 µM and the TGI (MCF7 breast) was over 100 µM. The TGI (HOP-92 NSCLC) was over 100 µM, the TGI (BT-549 breast) was over 100 µM and the TGI (HCT-116 colon) was over 100 µM. The TGI (UO-31 renal) was over 100 µM, the TGI (SK-MEL-5 melanoma) was over 100 µM and the TGI (HCC-2998 colon) was over 100 µM. For the same molecule, the TGI (OVCAR-8 ovarian) was over 100 µM, the TGI (M14 melanoma) was over 100 µM and the TGI (EKVX NSCLC) was over 100 µM. For the same molecule, the TGI (CCRF-CEM leukemia) was over 100 µM, the TGI (IGROV1 ovarian) was over 100 µM and the TGI (U251 CNS) was over 100 µM. For the same molecule, the TGI (KM12 colon) was over 100 µM, the TGI (T-47D breast) was over 100 µM and the TGI (ACHN renal) was over 100 µM. For the same molecule, the TGI (SK-MEL-28 melanoma) was over 100 µM, the TGI (SN12C renal) was over 100 µM and the TGI (NCI-H226 lung) was over 100 µM.

For `CC(=O)OCC1CCC(=C2C(=O)OC(C)(C)OC2=O)N1` (configuration not stated), the TGI (SF-539 CNS) was over 100 µM, the TGI (DU-145 prostate) was over 100 µM and the TGI (TK-10 renal) was over 100 µM. It also gave a TGI (MOLT-4 leukemia) of over 100 µM, a TGI (LOX IMVI melanoma) of over 100 µM and a TGI (MDA-MB-435) of over 100 µM. For the same molecule, the TGI (HCT-15 colon) was over 100 µM, the TGI (MALME-3M melanoma) was over 100 µM and the TGI (A549 NSCLC) was over 100 µM. For the same molecule, the TGI (CAKI-1 renal) was over 100 µM, the TGI (SNB-75 CNS) was over 100 µM and the TGI (OVCAR-3 ovarian) was over 100 µM. It also gave a TGI (COLO 205 colon) of over 100 µM, a TGI (HS 578T breast) of over 100 µM and a TGI (OVCAR-4 ovarian) of over 100 µM. The TGI (786-0 renal) was over 100 µM, the TGI (PC-3 prostate) was over 100 µM and the TGI (NCI-H23 lung) was over 100 µM. It also gave a TGI (SF-268 CNS) of over 100 µM, a TGI (NCI/ADR-RES ovarian) of over 100 µM and a TGI (MDA-MB-231 breast) of over 100 µM. It also gave a TGI (SF-295 CNS) of over 100 µM, a TGI (UACC-257 melanoma) of over 100 µM and a TGI (RXF 393 renal) of over 100 µM. It also gave a TGI (HOP-62 NSCLC) of over 100 µM, a TGI (HT29 colon) of over 100 µM and a TGI (SR leukemia) of over 100 µM. The TGI (RPMI-8226 leukemia) was over 100 µM, the TGI (SNB-19 CNS) was over 100 µM and the TGI (SK-OV-3 ovarian) was over 100 µM. For the same molecule, the TGI (SW-620 colon) was over 100 µM, the TGI (K-562 leukemia) was over 100 µM and the TGI (UACC-62 melanoma) was over 100 µM. For the same molecule, the TGI (NCI-H522 lung) was over 100 µM, the TGI (SK-MEL-2 melanoma) was over 100 µM and the TGI (HL-60(TB) leukemia) was over 100 µM. It also gave a TGI (MDA-N) of over 100 µM, a TGI (MCF7 breast) of over 100 µM and a TGI (NCI-H460 lung) of over 100 µM. For the same molecule, the TGI (HOP-92 NSCLC) was over 100 µM, the TGI (BT-549 breast) was over 100 µM and the TGI (HCT-116 colon) was over 100 µM. For the same molecule, the TGI (UO-31 renal) was over 100 µM, the TGI (SK-MEL-5 melanoma) was over 100 µM and the TGI (HCC-2998 colon) was over 100 µM. For the same molecule, the TGI (OVCAR-8 ovarian) was over 100 µM, the TGI (M14 melanoma) was over 100 µM and the TGI (EKVX NSCLC) was over 100 µM. The TGI (CCRF-CEM leukemia) was over 100 µM, the TGI (IGROV1 ovarian) was over 100 µM and the TGI (U251 CNS) was over 100 µM. It also gave a TGI (KM12 colon) of over 100 µM, a TGI (T-47D breast) of over 100 µM and a TGI (SK-MEL-28 melanoma) of over 100 µM. For the same molecule, the TGI (SN12C renal) was over 100 µM and the TGI (NCI-H226 lung) was over 100 µM.

Work on `COC(=O)CNC(=O)c1cc(C)cc2c1Oc1c(cc(C)cc1C(=O)NCC(=O)OC)S2` yielded a TGI (SF-539 CNS) of 43.7 µM, a TGI (DU-145 prostate) of over 100 µM and a TGI (TK-10 renal) of over 100 µM. It also gave a TGI (MOLT-4 leukemia) of over 100 µM, a TGI (LOX IMVI melanoma) of over 100 µM and a TGI (MDA-MB-435) of over 100 µM. It also gave a TGI (HCT-15 colon) of over 100 µM, a TGI (OVCAR-5 ovarian) of over 100 µM and a TGI (MALME-3M melanoma) of 40.7 µM. It also gave a TGI (A549 NSCLC) of over 100 µM, a TGI (CAKI-1 renal) of over 100 µM and a TGI (SNB-75 CNS) of over 100 µM. The TGI (OVCAR-3 ovarian) was over 100 µM, the TGI (COLO 205 colon) was 70.9 µM and the TGI (HS 578T breast) was over 100 µM. It also gave a TGI (OVCAR-4 ovarian) of over 100 µM, a TGI (786-0 renal) of over 100 µM and a TGI (PC-3 prostate) of over 100 µM. The TGI (NCI-H23 lung) was over 100 µM, the TGI (SF-268 CNS) was over 100 µM and the TGI (NCI/ADR-RES ovarian) was over 100 µM. For the same molecule, the TGI (MDA-MB-231 breast) was over 100 µM, the TGI (SF-295 CNS) was over 100 µM and the TGI (UACC-257 melanoma) was over 100 µM. The TGI (RXF 393 renal) was 69.4 µM, the TGI (HOP-62 NSCLC) was over 100 µM and the TGI (HT29 colon) was over 100 µM. The TGI (SR leukemia) was over 100 µM, the TGI (RPMI-8226 leukemia) was over 100 µM and the TGI (SNB-19 CNS) was over 100 µM. It also gave a TGI (SK-OV-3 ovarian) of over 100 µM, a TGI (SW-620 colon) of over 100 µM and a TGI (K-562 leukemia) of over 100 µM. For the same molecule, the TGI (UACC-62 melanoma) was over 100 µM, the TGI (NCI-H522 lung) was over 100 µM and the TGI (SK-MEL-2 melanoma) was over 100 µM. For the same molecule, the TGI (MDA-N) was over 100 µM, the TGI (MCF7 breast) was over 100 µM and the TGI (HOP-92 NSCLC) was 57.2 µM. For the same molecule, the TGI (BT-549 breast) was over 100 µM, the TGI (HCT-116 colon) was over 100 µM and the TGI (HCC-2998 colon) was over 100 µM. It also gave a TGI (OVCAR-8 ovarian) of over 100 µM, a TGI (M14 melanoma) of over 100 µM and a TGI (EKVX NSCLC) of over 100 µM. It also gave a TGI (CCRF-CEM leukemia) of over 100 µM, a TGI (IGROV1 ovarian) of over 100 µM and a TGI (U251 CNS) of over 100 µM. For the same molecule, the TGI (KM12 colon) was over 100 µM, the TGI (T-47D breast) was over 100 µM and the TGI (ACHN renal) was 58.4 µM. For the same molecule, the TGI (SK-MEL-28 melanoma) was over 100 µM, the TGI (SN12C renal) was over 100 µM and the TGI (NCI-H226 lung) was over 100 µM.
